From patent publication US4472305A, “Hexapeptide amides” (Sterling Drug Inc., priority 1983, dated 1984)
Several values for one entry are separate records, joined by “and”; a condition that tells them apart may be missing. Equal values may be shown once. Blank lines part the entries; values can stand above or below the compound they belong to. Non-standard residues stand in square brackets, D forms with d. Residues, ends and D or L forms follow the SMILES beside them. NMeF = CN[C@@H](Cc1ccccc1)C(=O)O; hPhe = N[C@@H](CCc1ccccc1)C(=O)O; NMeL = CN[C@@H](CC(C)C)C(=O)O; NMeNle = CCCC[C@H](NC)C(=O)O; NMeM = CN[C@@H](CCSC)C(=O)O; Nle = CCCC[C@H](N)C(=O)O

Experiments:
SP receptor [1] = molecular target: T1, SP receptor (Rattus norvegicus, UniProt P14600); test: 3H-SP binding test, rat brain tissue; conditions: rat brain tissue (Examples 35-42); for inhibition at 30 µM: 30 μM test compound
T1 construct: from tissue; host or cells: rat submaxillary gland (crude tissue suspension)
T1 sequence (P14600 whole entry): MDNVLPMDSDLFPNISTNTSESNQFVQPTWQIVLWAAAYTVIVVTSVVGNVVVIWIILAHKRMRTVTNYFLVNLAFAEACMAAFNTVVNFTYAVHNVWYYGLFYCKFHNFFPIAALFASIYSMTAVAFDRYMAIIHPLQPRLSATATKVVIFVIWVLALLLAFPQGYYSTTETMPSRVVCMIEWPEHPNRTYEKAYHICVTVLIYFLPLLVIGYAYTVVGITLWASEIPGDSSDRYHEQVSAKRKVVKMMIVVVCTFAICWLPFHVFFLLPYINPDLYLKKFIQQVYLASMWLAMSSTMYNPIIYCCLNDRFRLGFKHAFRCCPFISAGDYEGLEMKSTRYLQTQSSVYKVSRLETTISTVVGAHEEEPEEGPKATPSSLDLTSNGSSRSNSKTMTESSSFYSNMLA
Procedure: (§1) Crude rat submaxillary gland or brain tissue is suspended in buffer containing protease inhibitors (and calcium ions and magnesium ions in the case of brain tissue) and incubated under nitrogen atmosphere with ^3 H-SP and test compound. The bound SP is then separated from free SP by filtration and quantitated by liquid scintillation spectroscopy. This test meets the criteria of reversibility, saturability, sensitivity to known SP agonists and antagonists, and specificity for an SP receptor binding assay.
(§2) With regard to reversibility, addition of unlabelled SP causes a gradual decrease in bound ^3 H-SP, showing that SP is not irreversibly bound to the receptors in the tissue. With regard to saturability, the amount of bound ^3 H-SP in the preparation increases in direct proportion to the concentration of ^3 H-SP added until a saturation point is reached. […] With regard to sensitivity, known SP agonists and antagonists inhibit ^3 H-SP binding.
(§3) The results are expressed either as percent inhibition at a concentration of 30 micromoles per liter (μM) or as an IC50 calculated as the concentration in micromoles per liter.
(§4) The ^3 H-SP binding test results were obtained using rat submaxillary gland tissue for Examples 1-34 and rat brain tissue for Examples 35-42.

[2] = test system: longitudinal muscle of guinea pig terminal ileum; test: Guinea pig ileum test (SP agonist and antagonist effect); format: cell-based; conditions: for Guinea Pig Ileum pA2: antagonism of reference agonist, Schild plot analysis; for Guinea Pig Ileum % Agonism (potency relative to SP): contraction of ileum longitudinal muscle strips, relative molar potency vs SP
Procedure: Strips of longitudinal muscle derived from terminal ileum of adult male guinea pigs (Charles River, 400-600 g.) are mounted in 5-ml. organ baths containing oxygenated Krebs solution containing 1 μM each of atropine and pyrilamine maintained at 30-33 C. and connected to isometric transducers. Following tissue equilibration and repeated washing (45-60 min.), SP or an appropriate reference agonist is added cumulatively to the bath and contractions of the tissue are recorded. The bath is washed thoroughly and 30-45 min. is allowed to elapse before construction of a second reference agonist curve to assure reproducibility of the responses. Test compounds are similarly evaluated for agonist activity up to a maximum concentration of 10-100 μM. […] When appropriate, relative molar potency ratios are calculated (EC50 reference/ED50 test drug). […] The effects of several concentrations of test antagonist, pooled across separate experiments, provide dose-ratio (EC50 shift) data for a standard Schild plot analysis, with computation of the pA2.

SP receptor [3] = molecular target: T1, SP receptor; test: 3H-SP binding test, rat submaxillary gland tissue; conditions: for inhibition at 30 µM: read-out: 3H-SP Binding % Inhibition; for IC50: 3H-SP Binding IC50(μM), rat submaxillary gland tissue (Examples 1-34)
Procedure: as §1, §2, §3, §4

rat vas deferens = test: Rat vas deferens test (SP antagonist effect); format: cell-based; conditions: reversal of potentiation by 10 μM SP of electrically induced contractions
Procedure: Rat vasa deferentia are suspended in organ baths containing warmed, oxygenated Krebs solution and repetitively field-stimulated (0.1 Hz., 1 msec. duration, monophasic pulses) through platinum wire ring electrodes. Rapid, regular contractions of the muscle are recorded via transducers on a Grass polygraph. SP and related tachykinins added to the bath evoke a dose-dependent, stable potentiation of these electrically-induced contractions. For routine screening, a 10 μM concentration of SP is applied to all tissues to produce a 2-6 fold increase in electrically-stimulated twitch height. SP antagonist compounds (1-30 μM) produce an immediate, dose-related reversal of the response of the tissue to SP, which is quantified by determination of an IC50.

Compound: CSCC[C@H](NC(=O)[C@H](CC(C)C)N(C)C(=O)[C@@H](Cc1c[nH]c2ccccc12)NC(=O)[C@H](Cc1ccccc1)NC(=O)[C@@H](Cc1c[nH]c2ccccc12)NC(=O)[C@@H]1CCCN1)C(N)=O [Example 35, HPro-DTrp-Phe-DTrp-MeLeu-MetNH2] (H-P[dW]F[dW][NMeL]M-NH2)
inhibition at 30 µM (SP receptor [1]): 46%
IC50 (SP receptor [1]): 43.6 µM
Guinea Pig Ileum pA2 [2]: 6.3

Compound: CSCC[C@H](NC(=O)[C@H](CC(C)C)NC(=O)[C@@H](Cc1ccccc1)NC(=O)[C@H](CCc1ccccc1)NC(=O)[C@@H](Cc1ccccc1)NC(=O)[C@@H]1CCCN1)C(N)=O [Example 29, HPro-DPhe-Hfe-DPhe-Leu-MetNH2] (H-P[dF][hPhe][dF]LM-NH2)
inhibition at 30 µM (SP receptor [3]): 64%
IC50 (rat vas deferens): > 40 µM

Compound: CSCC[C@H](NC(=O)[C@H](CC(C)C)NC(=O)[C@@H](Cc1ccccc1)NC(=O)[C@H](Cc1ccccc1)NC(=O)[C@@H](Cc1ccccc1)NC(=O)[C@@H]1CCCN1)C(N)=O [Example 23, HPro-DPhe-Phe-DPhe-Leu-MetNH2] (H-P[dF]F[dF]LM-NH2)
inhibition at 30 µM (SP receptor [3]): 53%
Guinea Pig Ileum pA2 [2]: 5.4
Guinea Pig Ileum % Agonism (potency relative to SP) [2]: < 0.001%
IC50 (rat vas deferens): 20 µM

Compound: CCCC[C@H](NC(=O)[C@H](CC(C)C)NC(=O)[C@@H](Cc1ccccc1)NC(=O)[C@H](Cc1ccccc1)NC(=O)[C@@H](Cc1ccccc1)NC(=O)[C@@H]1CCCN1)C(N)=O [Example 31, HPro-DPhe-Phe-DPhe-Leu-NleNH2] (H-P[dF]F[dF]L[Nle]-NH2)
inhibition at 30 µM (SP receptor [3]): 47%
IC50 (rat vas deferens): 30 µM

Compound: CSCC[C@H](NC(=O)[C@H](CC(C)C)NC(=O)[C@@H](Cc1c[nH]c2ccccc12)NC(=O)[C@H](Cc1ccccc1)NC(=O)[C@@H](Cc1c[nH]c2ccccc12)NC(=O)[C@@H]1CCCN1)C(N)=O [Example 17, HPro-DTrp-Phe-DTrp-Leu-MetNH2] (H-P[dW]F[dW]LM-NH2)
IC50 (SP receptor [3]): 9.7 µM and 16.1 µM
Guinea Pig Ileum pA2 [2]: 5.7
Guinea Pig Ileum % Agonism (potency relative to SP) [2]: < 0.01%
IC50 (rat vas deferens): 4.1 µM

Compound: CSCC[C@@H](C(N)=O)N(C)C(=O)[C@H](CC(C)C)NC(=O)[C@@H](Cc1c[nH]c2ccccc12)NC(=O)[C@H](Cc1ccccc1)NC(=O)[C@@H](Cc1c[nH]c2ccccc12)NC(=O)[C@@H]1CCCN1 [Example 36, HPro-DTrp-Phe-DTrp-Leu-MeMetNH2] (H-P[dW]F[dW]L[NMeM]-NH2)
inhibition at 30 µM (SP receptor [1]): 82%
IC50 (SP receptor [1]): 11.5 µM
Guinea Pig Ileum pA2 [2]: 6.3

inhibition at 30 µM (SP receptor [1]): 9%
Compound: CSCC[C@H](NC(=O)[C@H](CC(C)C)NC(=O)CNC(=O)[C@H](Cc1ccccc1)NC(=O)[C@H](Cc1ccccc1)N(C)C(=O)[C@@H]1CCCN1)C(N)=O [Example 40, HPro-MePhe-Phe-Gly-Leu-MetNH2] (H-P[NMeF]FGLM-NH2)

Compound: CSCC[C@H](NC(=O)[C@H](CC(C)C)NC(=O)[C@@H](Cc1c[nH]c2ccccc12)NC(=O)[C@H](Cc1ccccc1)NC(=O)[C@@H](Cc1ccccc1)NC(=O)[C@@H]1CCCN1)C(N)=O [Example 12, HPro-DPhe-Phe-DTrp-Leu-MetNH2] (H-P[dF]F[dW]LM-NH2)
IC50 (SP receptor [3]): 26.8 µM
inhibition at 30 µM (SP receptor [3]): 69%
Guinea Pig Ileum pA2 [2]: 5.6
Guinea Pig Ileum % Agonism (potency relative to SP) [2]: 0.0001%
IC50 (rat vas deferens): 13 µM

inhibition at 30 µM (SP receptor [1]): 81%
Compound: CCCC[C@@H](C(N)=O)N(C)C(=O)[C@H](CC(C)C)NC(=O)[C@@H](Cc1c[nH]c2ccccc12)NC(=O)[C@H](Cc1ccccc1)NC(=O)[C@@H](Cc1c[nH]c2ccccc12)NC(=O)[C@@H]1CCCN1 [Example 42, HPro-DTrp-Phe-DTrp-Leu-MeNleNH2] (H-P[dW]F[dW]L[NMeNle]-NH2)

inhibition at 30 µM (SP receptor [1]): 46%
Compound: CSCC[C@H](NC(=O)[C@H](CC(C)C)NC(=O)[C@@H](Cc1c[nH]c2ccccc12)NC(=O)CNC(=O)[C@@H](Cc1c[nH]c2ccccc12)NC(=O)[C@@H]1CCCN1)C(N)=O [Example 39, HPro-DTrp-Gly-DTrp-Leu-MetNH2] (H-P[dW]G[dW]LM-NH2)
